{
  "source": "paper PMC7217877",
  "about": "“N-AS-triggered SPMs are direct regulators of microglia in a model of Alzheimer’s disease” (Nature Communications, 2020)",
  "assay_in_all_cases": "in vitro [14C] acetylation assay of purified COX2",
  "type_in_all_cases": "biochemical",
  "conditions_in_all_cases": "replicates, listed as C14 N-AS",
  "key": {"COX2 N181A": {"target": "T1, COX2 N181A (Homo sapiens, UniProt P35354, N181A)", "T1 construct": "His (N); made in house", "T1 sequence (P35354 18-604 N181A)": "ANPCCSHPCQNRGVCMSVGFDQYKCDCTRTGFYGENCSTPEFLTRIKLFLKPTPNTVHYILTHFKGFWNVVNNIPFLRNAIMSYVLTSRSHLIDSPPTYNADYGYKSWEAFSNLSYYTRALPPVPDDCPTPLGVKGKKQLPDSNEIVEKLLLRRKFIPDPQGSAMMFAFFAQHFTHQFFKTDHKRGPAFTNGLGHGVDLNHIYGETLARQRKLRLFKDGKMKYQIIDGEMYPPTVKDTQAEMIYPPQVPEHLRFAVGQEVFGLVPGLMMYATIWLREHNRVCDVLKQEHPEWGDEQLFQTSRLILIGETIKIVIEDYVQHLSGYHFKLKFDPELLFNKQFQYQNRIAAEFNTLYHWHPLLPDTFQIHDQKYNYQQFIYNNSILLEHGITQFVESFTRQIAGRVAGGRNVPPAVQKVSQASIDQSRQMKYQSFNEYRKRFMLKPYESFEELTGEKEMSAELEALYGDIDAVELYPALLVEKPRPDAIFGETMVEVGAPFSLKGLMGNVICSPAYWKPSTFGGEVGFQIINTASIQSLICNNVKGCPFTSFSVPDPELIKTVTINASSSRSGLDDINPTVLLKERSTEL", "description": "(§1) Single point mutations in SphK1 (R56A, R57A, R24A, R185A, D178A, and F192A) and COX2 (S565A, N181A, T564A, and S567A) were generated using the In-Fusion Cloning Kits (Clontech) and ORF cDNA expression plasmids of human SphK1 and COX2 gene (Sino Biological Inc, HG15679-NH and HG12036-NH), according to the manufacturer’s instructions. The forward and reverse primers described in Supplementary Table 4. The SphK1 WT, SphK1 mutants, COX2 WT, and COX2 mutant plasmids were transformed in the One shot TOP 10 competent cell (Invitrogen). The bacteria were grown in Luria-Bertani (LB, Invitrogen) plates supplemented with 50 μg ml^−1 kanamycin (Sigma-Aldrich) at 37 °C. The bacterial cell pellets were resuspended in lysis buffer containing 20 mM sodium phosphate (GE Healthcare), 500 mM NaCl (GE Healthcare), 20 mM imidazole (pH 7.4) (GE Healthcare), 0.2 mg ml^−1 lysozyme (Sigma-Aldrich), 20 μg ml^−1 DNase I (Roche), 1 mM MgCl2 (Sigma-Aldrich), and 1 mM PMSF (Sigma-Aldrich) before being lysed by sonication and clarified by centrifugation at 15,493×g for 10 min. Proteins were purified from the soluble fraction using His-Spin Trap columns (GE Healthcare) and the binding and acetylation assays were performed.\n(§2) Acetylation assays were performed according to previously described procedures with minor modifications. […] To confirm the N-AS-mediated COX2 acetylation, 10 μg COX2 (WT or mutants) was used incubated with [^14C] N-AS (2 μCi, ARC UK Ltd, ARC-1024) at 37 °C for 2 h. [^14C] aspirin (2 μCi, ARC UK Ltd, ARC-0473) was conducted as the positive control. The reactions were terminated by placing the reaction tubes in ice for 5 min. To evaluate in vivo neuronal and microglial COX2 acetylation, 10 μCi [^14C] N-AS was orally administrated to 9-months-old WT and APP/PS1 mice. After 1 h, neuron and microglia were isolated and sonicated in culture media. […] Acetylated COX2 proteins bound to the beads were analyzed using a Tri-Carb 3110TR liquid scintillation counter (Perkin-Elmer)."}, "COX2 S565A": {"target": "T2, COX2 S565A (Homo sapiens, UniProt P35354, S565A)", "T2 construct": "His (N); made in house", "T2 sequence (P35354 18-604 S565A)": "T1 sequence (P35354 18-604 N181A) with A164N, S548A", "description": "as §1, §2"}, "COX2 S567A": {"target": "T3, COX2 S567A (Homo sapiens, UniProt P35354, S567A)", "T3 construct": "His (N); made in house", "T3 sequence (P35354 18-604 S567A)": "T1 sequence (P35354 18-604 N181A) with A164N, S550A", "description": "as §1, §2"}},
  "note": "Numbering of substitutions follows the chain as printed. “And” between values parts separate entries of the source, which are not always exact repeats. Equal values may be shown once.",
  "data": [
    {"compound": "CCCCCCCCCCCCC/C=C/[C@@H](O)[C@H](CO)NC(C)=O", "note": "[N-AS, N-((2S,3R,E)-1,3-Dihydroxyoctadec-4-en-2-yl)acetamide]", "values": [
      {"measurement": "C14 radioactivity of COX2, acetylation assay (Fig 1h)", "setting": "COX2 N181A", "value": "141977 and 143404 and 142984 and 143554 and 143318 and 142968"},
      {"measurement": "C14 radioactivity of COX2, acetylation assay (Fig 1h)", "setting": "COX2 S565A", "value": "117550 and 118051 and 117876 and 111509 and 116124 and 117620"},
      {"measurement": "C14 radioactivity of COX2, acetylation assay (Fig 1h)", "setting": "COX2 S567A", "value": "185354 and 188203 and 187860 and 187573 and 187463 and 187847"}
    ]}
  ]
}
